Target: T1, human LPAR1 (Homo sapiens, UniProt Q92633)
T1 construct: expressed in transfected cells
Assay: Test Example 1: antagonism against response of LPA-induced increase in intracellular Ca2+ concentration in RH7777 cells stably expressing human LPAR1
Format: cell-based
Conditions: RH7777 cells stably expressing human LPAR1; Fluo-4 fluorescence, FDSS6000; read-out: IC50 value (concentration producing 50% antagonism against response of LPA-induced increase in intracellular Ca2+ concentration) (converted)
Protocol: (1) Preparation of RH7777 cells stably expressing human LPAR1
The human LPAR1 expression vector was transfected into RH7777 cells to acquire human LPAR1 expressing cells.
(2) Test of antagonism against response of LPA-induced increase in intracellular Ca^2+ concentration
Cells stably expressing human LPAR1 were used for a test of antagonism against response of LPA-induced increase in intracellular Ca^2+ concentration.
The cells were seeded onto the Poly-D-Lysine 96 well black plate and incubated overnight. […] 50 μL of the Basal Buffer (1×HBSS, 20 mM HEPES, 2.5 mM Probenecid, 0.05% BSA, 0.25 mg/mL Amaranth, pH 7.4) containing the test compound was added thereto, followed by incubation at 37° C. for 30 minutes. In FDSS6000 (Hamamatsu Photonics K.K.), LPAs were added, and the change in intracellular Ca^2+ concentration was detected using the fluorescence value of a wavelength of 540 nm by an excitation wavelength of 480 nm as an indicator. […] The Rmax under […] without the test compound was used as the control value. The Rmax under Basal Buffer stimulation with no LPAs or test compounds was used as the basal value.
The percentage (%) of increase in intracellular Ca^2+ concentration was calculated by dividing the value obtained by subtracting the basal value from Rmax in the presence of LPAs and each concentration of the test compound by the value obtained by subtracting the basal value from the control value. The concentration of each test compound was plotted on the X axis and the percentage (%) of increase in intracellular Ca^2+ concentration was plotted on the Y axis, and the IC50 value was calculated by nonlinear regression using XLfit.

T1 sequence (Q92633 whole entry): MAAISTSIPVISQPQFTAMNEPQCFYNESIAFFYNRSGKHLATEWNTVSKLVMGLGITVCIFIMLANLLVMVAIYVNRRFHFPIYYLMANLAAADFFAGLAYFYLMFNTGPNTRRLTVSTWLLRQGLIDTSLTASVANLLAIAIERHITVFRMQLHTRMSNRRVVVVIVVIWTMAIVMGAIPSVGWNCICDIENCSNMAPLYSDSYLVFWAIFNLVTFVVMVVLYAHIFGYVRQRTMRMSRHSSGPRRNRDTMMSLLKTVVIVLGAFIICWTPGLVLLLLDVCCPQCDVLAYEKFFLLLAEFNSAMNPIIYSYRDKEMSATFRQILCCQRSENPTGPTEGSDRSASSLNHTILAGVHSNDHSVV

SMILES	IC50 [nM]
CCOc1c(C(C)O)ccc([C@@H](C)N(CCCCc2ccccc2)C(=O)NC2(C(=O)O)CC(F)(F)C2)c1C (stereo partly drawn) [Example 1-77, 1-{[{(1R)-1-[3-Ethoxy-4-(1-Hydroxyethyl)-2-Methylphenyl]Ethyl}(4-Phenylbutyl) Carbamoyl]Amino}-3,3-Difluorocyclobutane-1-Carboxylic Acid]	3.12
CC(c1cc(Cl)cc(Cl)c1F)N(CCCCc1ccccc1)C(=O)NC1(C(=O)O)CC(F)(F)C1 (stereo not shown) [Example 1-80]	13.1
CCOc1cc(C(C)N(CCCCc2ccccc2)C(=O)NC2(C(=O)O)CC(F)(F)C2)c(C)cc1C(C)=O (stereo not shown) [Example 1-81]	0.944
CCOc1cc(C(C)N(CCCCc2ccccc2)C(=O)NC2(C(=O)O)CC(C)(C)C2)cc(OCC)c1C(C)=O (stereo not shown) [Example 1-84]	3.12
CCOc1cc([C@@H](C)N(CCCCc2ccccc2)C(=O)NC2(C(=O)O)CC(OC)C2)cc(OCC)c1C(C)=O (stereo partly drawn) [Example 1-85, 1-({[(1R)-1-(4-Acetyl-3,5-Diethoxyphenyl)Ethyl](4-Phenylbutyl) Carbamoyl}Amino)-3-Methoxycyclobutane-1-Carboxylic Acid]	2.53
CCOc1cc([C@@H](C)N(CCCCc2ccccc2)C(=O)N[C@]2(C(=O)O)C[C@@H](OC)C2)cc(OCC)c1C(C)=O [Example 1-86, Trans-1-({[(1R)-1-(4-Acetyl-3,5-Diethoxyphenyl)Ethyl](4-Phenylbutyl) Carbamoyl}Amino)-3-Methoxycyclobutane-1-Carboxylic Acid]	2.33
CCOc1cc([C@@H](C)N(CCCCc2ccccc2)C(=O)N[C@]2(C(=O)O)C[C@H](OC)C2)cc(OCC)c1C(C)=O [Example 1-87, Cis-1-({[(1R)-1-(4-Acetyl-3,5-Diethoxyphenyl)Ethyl](4-Phenylbutyl) Carbamoyl}Amino)-3-Methoxycyclobutane-1-Carboxylic Acid]	1.37
CCOc1cc([C@@H](C)N(CCCCc2ccccc2)C(=O)NC2(C(=O)O)CC(OC)C2)cc(OCC)c1C1(O)CC1 (stereo partly shown) [Example 1-90]	9.18
CCOc1cc([C@@H](C)N(CCCCc2ccccc2)C(=O)NC2(C(=O)O)CC(OC)C2)cc(OCC)c1C (stereo partly shown) [Example 1-91]	1.99
CCOc1c(C(C)=O)ccc([C@@H](C)N(CCCCc2ccccc2)C(=O)NC2(C(=O)O)CC(OC)C2)c1C (stereo partly shown) [Example 1-93]	4
CCOc1c(C(C)=O)ccc([C@@H](C)N(CCCCc2ccccc2)C(=O)NC2(C(=O)O)CC(OC)C2)c1C (stereo partly shown) [Example 1-94]	11.8
CCOc1cc([C@@H](C)N(CCCCc2ccccc2)C(=O)NC2(C(=O)O)CC(OCC)C2)cc(OCC)c1C(C)=O (stereo partly shown) [Example 1-95]	3.09
CCOc1cc(C(C)N(CCCCc2ccccc2)C(=O)NC2(C(=O)O)CC(OCC)C2)cc(OCC)c1C(C)=O (stereo not shown) [Example 1-96]	2.11
CCOc1cc([C@@H](C)N(CCCCc2ccccc2)C(=O)NC2(C(=O)O)CC(OCC)C2)cc(OCC)c1C(C)=O (stereo partly shown) [Example 1-97]	3.94
CCOc1cc([C@@H](C)N(CCCCc2ccccc2)C(=O)NC2(C(=O)O)CC(OCC)C2)cc(OCC)c1C(C)O (stereo partly shown) [Example 1-98]	4.33
CCOc1cc([C@@H](C)N(CCCCc2ccccc2)C(=O)NC2(C(=O)O)CC(OCC)C2)cc(OCC)c1C(C)O (stereo partly shown) [Example 1-99]	2.58
CCOc1cc([C@@H](C)N(CCCCc2ccccc2)C(=O)NC2(C(=O)O)CC(OCC)C2)cc(OCC)c1C (stereo partly shown) [Example 1-100]	3.13
CCOc1cc(C(C)N(CCCCc2ccccc2)C(=O)NC2(C(=O)O)CC(OCC)C2)cc(OCC)c1C1CC1 (stereo not shown) [Example 1-101]	1.44
CCOc1c(C(C)=O)ccc([C@@H](C)N(CCCCc2ccccc2)C(=O)NC2(C(=O)O)CC(OCC)C2)c1C (stereo partly shown) [Example 1-102]	2.03
CCOc1c(C(C)=O)ccc([C@@H](C)N(CCCCc2ccccc2)C(=O)NC2(C(=O)O)CC(OCC)C2)c1C (stereo partly shown) [Example 1-103]	4.57
CCOc1c(C(C)(C)O)ccc([C@@H](C)N(CCCCc2ccccc2)C(=O)NC2(C(=O)O)CC(OCC)C2)c1C (stereo partly shown) [Example 1-104]	10.3
CCOc1cc([C@@H](C)N(CCCCc2ccccc2)C(=O)NC2(C(=O)O)CC(O)C2)cc(OCC)c1C (stereo partly shown) [Example 1-106]	8.72
CCOc1cc([C@@H](C)N(CCCCc2ccccc2)C(=O)NC2(C(=O)O)CC(N3CCCC3)C2)cc(OCC)c1C (stereo partly shown) [Example 1-108]	512
CCOc1cc([C@@H](C)N(CCCCc2ccccc2)C(=O)NC2(C(=O)O)CC(N3CCN(C)CC3)C2)cc(OCC)c1C (stereo partly shown) [Example 1-109]	312
CCOc1cc([C@@H](C)N(CCCCc2ccccc2)C(=O)NC2(C(=O)O)CC(N3CCOCC3)C2)cc(OCC)c1C (stereo partly shown) [Example 1-110]	20.2
CCOc1cc([C@@H](C)N(CCCCc2ccccc2)C(=O)NC2(C(=O)O)CC(=O)C2)cc(OCC)c1C [Example 1-111]	2.31

SMILES	IC50 [nM]
CCOc1cc(C(C)N(CCCCc2ccccc2)C(=O)NC2(C(=O)O)CCCC2)cc(OCC)c1C (stereo not shown) [Example 1-112]	18.7
CCOc1cc([C@@H](C)N(CCCCc2ccccc2)C(=O)NC2(C(=O)O)CCCC2)cc(OCC)c1C [Example 1-113]	4.09
CCOc1cc(C(C)N(CCCCc2ccccc2)C(=O)NC2(C(=O)O)CCCC2)cc(OC(C)C)c1C (stereo not shown) [Example 1-114]	128
COc1cc(C(C)N(CCCCc2ccccc2)C(=O)NC2(C(=O)O)CCCC2)cc(OC)c1C (stereo not shown) [Example 1-116]	57.4
COc1cc([C@@H](C)N(CCCCc2ccccc2)C(=O)NC2(C(=O)O)CCCC2)cc(OC)c1C [Example 1-117]	16.8
CCOc1cc([C@@H](C)N(CCCCc2ccccc2)C(=O)NC2(C(=O)O)CCCCC2)cc(OCC)c1C [Example 1-118]	42.8
CCOc1cc([C@@H](C)N(CCCCc2ccccc2)C(=O)NC2(C(=O)O)CCCCCC2)cc(OCC)c1C [Example 1-119]	53.6
CCOc1cc(C(C)N(CCCCc2ccccc2)C(=O)NC2(C(=O)O)CCC(C(=O)O)CC2)cc(OCC)c1C (stereo not shown) [Example 1-120]	1670
CCOc1cc([C@@H](C)N(CCCCc2ccccc2)C(=O)NC2(C(=O)O)CC3(CCC3)C2)cc(OCC)c1C [Example 1-121]	9.23
CCOc1cc(C(C)N(CCCCc2ccccc2)C(=O)NC2(C(=O)O)Cc3ccccc3C2)cc(OCC)c1C (stereo not shown) [Example 1-122]	12.7
CCOc1cc([C@@H](C)N(CCCCc2ccccc2)C(=O)NC2(C(=O)O)Cc3ccccc3C2)cc(OCC)c1C [Example 1-123, 2-({[(1R)-1-(3,5-Diethoxy-4-Methylphenyl)Ethyl](4-Phenylbutyl) Carbamoyl}Amino)-2,3-Dihydro-1H-Indene-2-Carboxylic Acid]	12.7
CCOc1cc([C@H](C)N(CCCCc2ccccc2)C(=O)NC2(C(=O)O)Cc3ccccc3C2)cc(OCC)c1C [Example 1-124, 2-({[(1S)-1-(3,5-Diethoxy-4-Methylphenyl)Ethyl](4-Phenylbutyl) Carbamoyl}Amino)-2,3-Dihydro-1H-Indene-2-Carboxylic Acid]	237
CCOc1cc(C(C)N(CCCCc2ccccc2)C(=O)NC2CCC2C(=O)O)cc(OCC)c1C(C)=O (stereo not shown) [Example 1-125]	3.09
CCOc1cc([C@@H](C)N(CCCCc2ccccc2)C(=O)NC2CCC2C(=O)O)cc(OCC)c1C(C)=O (stereo partly shown) [Example 1-126]	3.13
CCOc1c(C(C)=O)ccc([C@@H](C)N(CCCCc2ccccc2)C(=O)NC2CCC2C(=O)O)c1C (stereo partly shown) [Example 1-127]	33.7
CCOc1cc(C(C)N(CCCCc2ccccc2)C(=O)NC2CC(C(=O)O)C2)cc(OCC)c1C(C)=O (stereo not shown) [Example 1-128]	6.38
CCOc1cc(C(C)N(CCCCc2ccccc2)C(=O)NC2CC(C(=O)O)C2)cc(OCC)c1C(C)=O (stereo not shown) [Example 1-129]	9.98
CCOc1cc([C@@H](C)N(CCCCc2ccccc2)C(=O)NC2CC(C(=O)O)C2)cc(OCC)c1C1CC1 (stereo partly shown) [Example 1-130]	6.48
CCOc1cc([C@@H](C)N(CCCCc2ccccc2)C(=O)NC2CCC[C@H]2C(=O)O)cc(OCC)c1C(C)=O (stereo partly shown) [Example 1-133]	1.21
CCOc1cc([C@@H](C)N(CCCCc2ccccc2)C(=O)NC2CCC[C@@H]2C(=O)O)cc(OCC)c1C(C)=O (stereo partly shown) [Example 1-134]	14.5
CCOc1cc([C@@H](C)N(CCCCc2ccccc2)C(=O)NC2CCCC2C(=O)O)cc(OCC)c1C(C)=O (stereo partly shown) [Example 1-135]	2.17
CCOc1cc(C(C)N(CCCCc2ccccc2)C(=O)NC2CCC[C@H]2C(=O)O)cc(OCC)c1C (stereo partly shown) [Example 1-136]	18.2
CCOc1cc(C(C)N(CCCCc2ccccc2)C(=O)NC2CCC[C@@H]2C(=O)O)cc(OCC)c1C (stereo partly shown) [Example 1-137]	102
CCOc1cc(C(C)N(CCCCc2ccccc2)C(=O)NC2CCC(C(=O)O)C2)cc(OCC)c1C(C)=O (stereo not shown) [Example 1-139]	3.09
CCOc1cc([C@@H](C)N(CCCCc2ccccc2)C(=O)NC2CCC(C(=O)O)C2)cc(OCC)c1C(C)=O (stereo partly shown) [Example 1-140]	65.9
CCOc1cc([C@@H](C)N(CCCCc2ccccc2)C(=O)NC2CCC(C(=O)O)C2)cc(OCC)c1C(C)=O (stereo partly shown) [Example 1-141]	42.9
